# In US20250243196A1, “CITRON KINASE INHIBITORS” (The Cleveland Clinic Foundation, priority 2021, published 2025):
# Tests used:
# [1] = biological target: T1, Citron kinase (Homo sapiens (Human), UniProt O14578); experiment: Radiometric citron kinase assay (Eurofins Cat #16-040KP); format: biochemical
# Outline: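 Radiometric KinaseProfiler format: test compound incubated with kinase, substrate, cofactors and radiolabelled ATP; unreacted ATP washed away and radiolabelled phosphate incorporated into substrate measured. IC50 derived from inhibition of phosphorylation. Values are means of at least two independent assays.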
# [2] = biological target: NanoLuc-CITK (full-length human CITK) (Homo sapiens (Human), UniProt O14578); experiment: NanoBRET intracellular target engagement assay; format: cell-based
# Sequence of NanoLuc-CITK (full-length human CITK) (O14578 other isoform, or with tags, fused parts or gaps): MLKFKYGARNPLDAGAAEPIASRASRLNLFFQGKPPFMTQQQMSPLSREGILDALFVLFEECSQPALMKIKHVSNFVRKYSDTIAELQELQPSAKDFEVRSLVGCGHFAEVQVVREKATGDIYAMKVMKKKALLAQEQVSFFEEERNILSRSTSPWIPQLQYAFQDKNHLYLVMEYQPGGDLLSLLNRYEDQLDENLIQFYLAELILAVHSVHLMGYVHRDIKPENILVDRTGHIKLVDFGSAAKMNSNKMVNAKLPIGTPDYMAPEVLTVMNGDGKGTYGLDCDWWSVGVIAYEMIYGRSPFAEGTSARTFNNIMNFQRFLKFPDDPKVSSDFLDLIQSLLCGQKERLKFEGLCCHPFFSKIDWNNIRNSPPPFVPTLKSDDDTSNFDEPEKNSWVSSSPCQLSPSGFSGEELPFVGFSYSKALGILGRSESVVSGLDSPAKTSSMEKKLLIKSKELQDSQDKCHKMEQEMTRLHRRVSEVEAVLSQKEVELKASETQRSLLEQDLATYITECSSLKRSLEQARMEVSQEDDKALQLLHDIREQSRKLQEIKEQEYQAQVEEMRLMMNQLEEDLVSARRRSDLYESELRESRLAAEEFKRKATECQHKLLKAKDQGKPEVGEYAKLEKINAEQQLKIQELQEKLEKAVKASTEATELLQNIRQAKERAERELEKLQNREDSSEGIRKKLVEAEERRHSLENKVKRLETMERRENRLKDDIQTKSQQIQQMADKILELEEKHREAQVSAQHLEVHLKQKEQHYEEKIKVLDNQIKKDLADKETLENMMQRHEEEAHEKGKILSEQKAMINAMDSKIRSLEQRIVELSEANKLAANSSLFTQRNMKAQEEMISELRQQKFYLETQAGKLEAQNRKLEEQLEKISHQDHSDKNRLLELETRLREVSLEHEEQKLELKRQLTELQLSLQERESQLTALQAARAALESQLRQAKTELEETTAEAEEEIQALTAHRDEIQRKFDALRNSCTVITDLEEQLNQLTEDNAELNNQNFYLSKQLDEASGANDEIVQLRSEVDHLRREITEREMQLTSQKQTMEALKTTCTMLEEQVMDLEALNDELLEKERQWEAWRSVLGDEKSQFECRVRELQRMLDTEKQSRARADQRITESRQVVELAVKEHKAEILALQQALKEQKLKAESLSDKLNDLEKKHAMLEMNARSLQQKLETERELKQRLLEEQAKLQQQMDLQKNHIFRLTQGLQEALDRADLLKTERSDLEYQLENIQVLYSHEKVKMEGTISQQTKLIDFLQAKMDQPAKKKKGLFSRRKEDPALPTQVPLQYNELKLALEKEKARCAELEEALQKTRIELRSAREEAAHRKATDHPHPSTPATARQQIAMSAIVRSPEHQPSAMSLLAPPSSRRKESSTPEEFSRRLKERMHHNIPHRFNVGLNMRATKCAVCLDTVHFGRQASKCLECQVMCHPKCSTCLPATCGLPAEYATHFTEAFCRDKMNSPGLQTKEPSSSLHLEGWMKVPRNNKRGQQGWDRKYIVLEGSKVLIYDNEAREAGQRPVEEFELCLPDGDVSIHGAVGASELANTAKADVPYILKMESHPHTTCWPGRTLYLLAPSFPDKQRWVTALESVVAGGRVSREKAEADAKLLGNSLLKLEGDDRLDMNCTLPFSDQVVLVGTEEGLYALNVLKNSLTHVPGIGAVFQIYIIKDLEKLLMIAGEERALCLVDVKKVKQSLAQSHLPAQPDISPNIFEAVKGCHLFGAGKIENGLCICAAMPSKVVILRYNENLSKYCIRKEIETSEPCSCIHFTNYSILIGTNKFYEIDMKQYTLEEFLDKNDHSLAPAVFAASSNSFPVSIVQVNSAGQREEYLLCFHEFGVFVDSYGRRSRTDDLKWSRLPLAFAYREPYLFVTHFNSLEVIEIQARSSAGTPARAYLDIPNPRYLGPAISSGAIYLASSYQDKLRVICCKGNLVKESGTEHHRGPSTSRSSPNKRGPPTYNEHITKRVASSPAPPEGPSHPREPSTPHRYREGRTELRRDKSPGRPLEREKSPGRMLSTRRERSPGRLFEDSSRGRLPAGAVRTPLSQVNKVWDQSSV
# Description: In-cell Kd values were evaluated with a NanoBRET Target Engagement Assay essentially as recommended by the manufacturer (Promega Corporation—for details see https://www.promega.com/resources/technologies/nanoluc-luciferase-enzyme/cellular-target-engagement/).
# HEK293T cells were transfected with 5.0 μg/mL sterile NanoLuc-CITK DNA, 5.0 μg/mL Transfection Carrier DNA, and 30 μL/mL FugeneHD® (Promega) in Opti-Mem™ (Thermo) media at a cell density of 250,000 cells/mL. […] 5 μL of the 25× Tracer K10 solution was added to each well. Next, designated inhibitors were prepared from powder as 10 mM DMSO stocks and then further diluted to 10× the final assay concentration in Opti-Mem™. 12-pt dose-response curves were prepared by 3×-serial dilution. […] A 3× Complete Substrate+Inhibitor solution, containing 6 mL of Opti-Mem™, 36 μL of NanoBRET Nano-Glo Substrate, and 12 μL Extracellular NanoLuc Inhibitor was freshly prepared for each plate. 50 μL of the 3× Complete Substrate+Inhibitor solution was added to all wells and the plate was incubated for 2 min with 500 RPM shaking. The bottom of the plates were covered with black plate seals and then measured on a Cytation 5 plate reader (Biotek) with a NanoBRET Filter Cube (Biotek; 450/50 emission & 610LP emission). Background corrected BRET ratios (in mBU) were calculated in Excel and IC50's were subsequently extracted using four-parameter non-linear regression in GraphPad Prism 8.
# [3] = biological target: T1, Citron kinase; experiment: TR-FRET citron kinase assay (Eurofins Cat #2628); format: biochemical; conditions: mean of at least two independent assays; read-out: TR-FRET CitK IC50
# Source text: Compounds were screened for biochemical kinase activity (Eurofins Discovery, France) using one of two assays. […] All values in Table 1 are the mean of at least two independent assays.
# [4] = biological target: AKT-1 (Homo sapiens (Human), UniProt P31749); experiment: KinaseProfiler radiometric assay (14-276KP); format: biochemical; conditions: mean of at least two independent experiments
# Sequence of AKT-1 (P31749 whole entry): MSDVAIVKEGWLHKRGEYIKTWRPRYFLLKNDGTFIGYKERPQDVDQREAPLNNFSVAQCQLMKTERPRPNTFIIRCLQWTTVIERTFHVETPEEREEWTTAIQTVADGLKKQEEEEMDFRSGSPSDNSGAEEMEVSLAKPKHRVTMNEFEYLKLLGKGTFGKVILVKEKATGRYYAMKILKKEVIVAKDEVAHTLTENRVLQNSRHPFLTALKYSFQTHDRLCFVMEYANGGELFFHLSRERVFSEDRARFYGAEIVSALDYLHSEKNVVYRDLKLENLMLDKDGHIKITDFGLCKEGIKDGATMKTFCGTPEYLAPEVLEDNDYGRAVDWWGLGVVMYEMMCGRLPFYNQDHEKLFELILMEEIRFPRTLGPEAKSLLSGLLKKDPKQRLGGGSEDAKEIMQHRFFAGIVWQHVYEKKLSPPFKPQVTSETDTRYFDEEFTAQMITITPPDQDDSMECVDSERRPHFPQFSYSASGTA
# Source text: (§1) In another aspect, disclosed is a method of inhibiting citron kinase in a sample, comprising contacting the sample with a compound described herein (e.g., a compound of formula (I) or a pharmaceutically acceptable salt thereof), or a pharmaceutical composition described herein (e.g., a pharmaceutical composition comprising a compound of formula (I) or a pharmaceutically acceptable salt thereof), in an amount effective to inhibit citron kinase. In some embodiments, the step of contacting the sample with the compound comprises administering the compound to a subject (e.g., a subject) suffering from cancer. Methods of determining kinase inhibition are well known in the art. For example, kinase activity of an enzyme and the inhibitory capacity of a test compound can be determined by measuring enzyme specific phosphorylation of a substrate. Commercial assays and kits can be employed. For example, kinase inhibition can be determined using a radiometric binding assay, such as using KinaseProfiler™ technology (Eurofins Discovery). This assay method directly detects product formation without the use of modified substrates or coupling enzymes. Test compounds are incubated with kinase, substrate, required cofactors and radioisotope labeled ATP. Following incubation, unreacted radioactive ATP is removed by washing and incorporation of the radiolabeled phosphate into the kinase substrate is assayed to detect phosphoryltransferase activity, which is directly proportional to the amount of phosphorylated substrate. Inhibition of the kinase by a kinase inhibitor prevents phosphorylation of the substrate and thereby limits the incorporation of radiolabeled phosphate. Such an assay is compatible with a microwell assay format, allowing simultaneous determination of IC50 of multiple compounds.
# (§2) The effect of various compounds on the inhibition of other kinases has also been determined. Table 2 reports measured IC50 values; value units are nanomolar inhibition.
# [5] = biological target: AUR-B (Homo sapiens (Human), UniProt Q96GD4); experiment: KinaseProfiler radiometric assay (14-835KP); format: biochemical; conditions: mean of at least two independent experiments
# Sequence of AUR-B (Q96GD4 whole entry): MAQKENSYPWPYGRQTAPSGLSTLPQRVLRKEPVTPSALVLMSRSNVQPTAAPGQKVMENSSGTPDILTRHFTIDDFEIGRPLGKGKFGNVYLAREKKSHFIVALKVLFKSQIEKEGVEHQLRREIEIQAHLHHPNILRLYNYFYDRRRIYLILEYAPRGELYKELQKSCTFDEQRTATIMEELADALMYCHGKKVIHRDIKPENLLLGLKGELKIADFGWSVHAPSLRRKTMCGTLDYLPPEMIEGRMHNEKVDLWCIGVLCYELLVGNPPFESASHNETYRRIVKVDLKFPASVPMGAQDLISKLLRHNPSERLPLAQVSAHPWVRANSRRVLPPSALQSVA
# Source text: as §1, §2
# [6] = biological target: IKKβ (Homo sapiens (Human), UniProt O14920); experiment: KinaseProfiler radiometric assay (14-485KP); format: biochemical; conditions: mean of at least two independent experiments
# Source text: as §1, §2
# [7] = biological target: PKAα (Homo sapiens (Human), UniProt P17612); experiment: KinaseProfiler radiometric assay (14-440KP); format: biochemical; conditions: mean of at least two independent experiments
# Source text: as §1, §2
# [8] = biological target: ROCK-1 (Homo sapiens (Human), UniProt Q13464); experiment: KinaseProfiler radiometric assay (14-601KP); format: biochemical; conditions: mean of at least two independent experiments
# Source text: as §1, §2
# [9] = biological target: ROCK-2 (Homo sapiens (Human), UniProt O75116); experiment: KinaseProfiler radiometric assay (14-451KP); format: biochemical; conditions: mean of at least two independent experiments
# Source text: as §1, §2
# [10] = biological target: TRK-B (Homo sapiens (Human), UniProt Q16620); experiment: KinaseProfiler radiometric assay (14-507KP); format: biochemical; conditions: mean of at least two independent experiments
# Source text: as §1, §2
# [11] = tested on: LNCaP cells; experiment: Androgen-induced citron kinase expression, western blotting; format: cell-based; conditions: low doses of androgen, 48 hours
# Description: (§3) FIG. 1A: LNCaP (top panel) and VCaP cells (bottom panel) were treated with increasing doses of the synthetic androgen R1881 for 48 hours. CIT and j-actin expression were analyzed by western blotting. FIG. 1B: LNCaP (left panel) and VCaP cells (right panel) were treated with increasing doses of the natural androgen dihydrotestosterone (DHT) and analyzed as for FIG. 1A.
# [12] = tested on: VCaP cells; experiment: as above; format: cell-based; conditions: low doses of androgen, 48 hours
# Description: as §3
# [13] = HEK293T cells transfected with NanoLuc-CITK, Tracer K10 1 μM, 2 hours
# [14] = mean of at least two independent assays, read-out: Radiometric CitK IC50
# T1 sequence (O14578 whole entry): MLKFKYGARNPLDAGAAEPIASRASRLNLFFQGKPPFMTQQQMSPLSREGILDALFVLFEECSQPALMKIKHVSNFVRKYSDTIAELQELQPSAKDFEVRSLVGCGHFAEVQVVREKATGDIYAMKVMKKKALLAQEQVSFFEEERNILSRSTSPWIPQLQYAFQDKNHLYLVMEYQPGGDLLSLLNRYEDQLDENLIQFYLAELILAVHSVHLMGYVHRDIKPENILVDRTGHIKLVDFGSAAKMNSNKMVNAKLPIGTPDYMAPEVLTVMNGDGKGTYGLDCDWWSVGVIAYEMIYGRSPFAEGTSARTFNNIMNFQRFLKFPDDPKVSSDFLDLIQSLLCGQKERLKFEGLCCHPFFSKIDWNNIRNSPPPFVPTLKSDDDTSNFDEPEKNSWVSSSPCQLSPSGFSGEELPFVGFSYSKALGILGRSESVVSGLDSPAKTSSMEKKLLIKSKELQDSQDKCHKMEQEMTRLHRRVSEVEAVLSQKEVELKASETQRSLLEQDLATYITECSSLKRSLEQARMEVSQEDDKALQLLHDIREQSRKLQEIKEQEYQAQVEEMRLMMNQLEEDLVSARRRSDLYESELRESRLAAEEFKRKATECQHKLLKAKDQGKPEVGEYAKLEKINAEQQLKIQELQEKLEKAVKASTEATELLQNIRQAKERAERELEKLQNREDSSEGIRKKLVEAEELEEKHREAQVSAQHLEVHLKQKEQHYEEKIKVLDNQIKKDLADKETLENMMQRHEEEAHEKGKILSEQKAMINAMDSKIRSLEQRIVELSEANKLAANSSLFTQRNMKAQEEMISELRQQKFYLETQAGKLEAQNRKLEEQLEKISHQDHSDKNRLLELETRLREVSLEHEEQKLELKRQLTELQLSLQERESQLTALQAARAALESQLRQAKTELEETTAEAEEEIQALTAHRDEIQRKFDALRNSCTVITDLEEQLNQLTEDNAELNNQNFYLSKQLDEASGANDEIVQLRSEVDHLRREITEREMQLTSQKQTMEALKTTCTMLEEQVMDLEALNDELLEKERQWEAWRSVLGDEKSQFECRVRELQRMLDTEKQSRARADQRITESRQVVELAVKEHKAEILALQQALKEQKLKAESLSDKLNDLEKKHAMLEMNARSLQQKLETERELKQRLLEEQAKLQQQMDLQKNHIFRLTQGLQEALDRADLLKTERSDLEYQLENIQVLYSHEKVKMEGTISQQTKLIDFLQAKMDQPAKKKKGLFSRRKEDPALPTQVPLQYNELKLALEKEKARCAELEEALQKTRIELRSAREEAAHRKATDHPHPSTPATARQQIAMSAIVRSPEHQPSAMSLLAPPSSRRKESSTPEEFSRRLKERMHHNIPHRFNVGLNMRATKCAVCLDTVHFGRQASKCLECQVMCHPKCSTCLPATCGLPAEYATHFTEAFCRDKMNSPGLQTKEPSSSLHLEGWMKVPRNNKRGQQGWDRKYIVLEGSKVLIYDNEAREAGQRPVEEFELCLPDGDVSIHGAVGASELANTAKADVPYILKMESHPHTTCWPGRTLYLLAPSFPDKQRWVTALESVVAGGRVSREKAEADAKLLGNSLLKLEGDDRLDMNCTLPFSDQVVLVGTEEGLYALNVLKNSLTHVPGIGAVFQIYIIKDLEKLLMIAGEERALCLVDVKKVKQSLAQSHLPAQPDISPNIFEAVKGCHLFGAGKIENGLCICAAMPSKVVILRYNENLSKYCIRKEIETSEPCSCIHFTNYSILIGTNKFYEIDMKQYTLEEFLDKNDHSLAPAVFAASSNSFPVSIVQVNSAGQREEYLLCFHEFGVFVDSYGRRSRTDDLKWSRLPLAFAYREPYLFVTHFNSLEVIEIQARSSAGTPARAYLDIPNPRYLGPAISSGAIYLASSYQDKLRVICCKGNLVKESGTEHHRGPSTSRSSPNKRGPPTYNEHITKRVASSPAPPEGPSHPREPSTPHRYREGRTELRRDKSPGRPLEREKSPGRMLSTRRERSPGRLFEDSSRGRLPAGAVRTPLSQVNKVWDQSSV
Structure (SMILES),"IC50 [1, 14] [nM]",IC50 [6] [nM],IC50 [7] [nM],IC50 [9] [nM],further results
"Cc1cc2c(-c3ccc(NC(=O)[C@H](N)CC(C)(C)C)cc3C)cncc2[nH]1 [6-Azaindole Control, reference compound]",–,–,–,–,"IC50 ([1]; biochemical assay described in Example 3, read-out: IC50): > 3000 nM; NanoBRET IC50 (nM) [2, 13]: No binding; KD (nM)* ([2]; in-cell KD from IC50 by Cheng-Prussoff, [Tracer K10] = 1 μM, KD Tracer K10 = 0.23 μM): No binding"
"CC(C)C[C@H](N)C(=O)Nc1ccc(-c2ccnc3[nH]ccc23)cc1 [Compound F-8, (2S)-2-Amino-4-methyl-N-[4-(1H-pyrrolo[2,3-b]pyridin-4-yl)phenyl]pentanamide]",54.1,–,–,–,IC50 [3]: 29.9 nM
"CC(C)C[C@@H](N)C(=O)Nc1ccc(-c2ccnc3[nH]ccc23)cc1 [Compound F-9, (2R)-2-Amino-4-methyl-N-[4-(1H-pyrrolo[2,3-b]pyridin-4-yl)phenyl]pentanamide]",12.5,111,7,18,"IC50 [3]: 4.9 nM; IC50 [4]: 761 nM; IC50 [5]: 230 nM; IC50 [8]: 230 nM; IC50 [10]: > 3000 nM; Kd [2]: 13 nM; IC50 [2, 13]: 67 nM"
"CC(C)(C)[C@@H](N)C(=O)Nc1ccc(-c2ccnc3[nH]ccc23)cc1 [Compound F-13, (2R)-2-Amino-3,3-dimethyl-N-[4-(1H-pyrrolo[2,3-b]pyridin-4-yl)phenyl]butanamide]",–,234,1,64,–
"NC(C(=O)Nc1ccc(-c2ccnc3[nH]ccc23)cc1)C1CC1 (centres unmarked) [Compound F-18, 2-Amino-2-cyclopropyl-N-[4-(1H-pyrrolo[2,3-b]pyridine-4-yl)phenyl]acetamide]",–,–,–,–,IC50 [3]: 120 nM
"N[C@@H](Cc1ccccc1)C(=O)Nc1ccc(-c2ccnc3[nH]ccc23)cc1 [Compound F-32, (S)-N-(4-(1H-pyrrolo[2,3-b]pyridin-4-yl)phenyl)-2-amino-3-phenylpropanamide]",–,–,7,–,IC50 [4]: 1100 nM; IC50 [5]: 156 nM; IC50 [8]: 119 nM; IC50 [10]: 469 nM
"N[C@H](Cc1ccccc1)C(=O)Nc1ccc(-c2ccnc3[nH]ccc23)cc1 [Compound F-33, (R)-N-(4-(1H-pyrrolo[2,3-b]pyridin-4-yl)phenyl)-2-amino-3-phenylpropanamide]",–,–,3,–,IC50 [4]: 436 nM; IC50 [5]: 104 nM; IC50 [8]: 107 nM; IC50 [10]: 332 nM
"CN[C@H](CC(C)C)C(=O)Nc1ccc(-c2ccnc3[nH]ccc23)cc1 [Compound F-41, (2R)-4-Methyl-2-(methylamino)-N-[4-(1H-pyrrolo[2,3-b]pyridin-4-yl)phenyl]pentanamide]",–,345,6,11,–
"Cc1cc2c(-c3ccc(NC(=O)[C@H](N)CC(C)C)cc3)ccnc2[nH]1 [Compound F-48, (2R)-2-Amino-4-methyl-N-[4-[2-methyl-1H-pyrrolo[2,3-b]pyridin-4-yl]phenyl]pentanamide]",–,122,> 3000,> 3000,–
"Cc1cc(NC(=O)[C@H](N)CC(C)C)ccc1-c1ccnc2[nH]ccc12 [Compound F-58, (2R)-2-Amino-4-methyl-N-[3-methyl-4-(1H-pyrrolo[2,3-b]pyridin-4-yl)phenyl]pentanamide]",–,> 3000,82,104,–
"Cc1cc(NC(=O)[C@H](N)C(C)(C)C)ccc1-c1ccnc2[nH]ccc12 [Compound F-59, (2R)-2-Amino-3,3-dimethyl-N-[3-methyl-4-(1H-pyrrolo[2,3-b]pyridin-4-yl)phenyl]butanamide]",49.1,> 3000,319,546,–
"CC(C)C[C@@H](N)C(=O)Nc1ccc(-c2ccnc3[nH]ccc23)cc1F [Compound F-70, (2R)-2-Amino-N-[2-fluoro-4-(1H-pyrrolo[2,3-b]pyridin-4-yl)phenyl]-4-methyl-Pentanamide]",36.9,2300,43,49,–
"COc1cc(-c2ccnc3[nH]ccc23)ccc1NC(=O)[C@H](N)CC(C)C [Compound F-77, (2R)-2-Amino-N-[2-methoxy-4-(1H-pyrrolo[2,3-b]pyridin-4-yl)phenyl]-4-methyl-pentanamide]",–,829,26,12,–
"Cc1c[nH]c2nccc(-c3ccc(NC(=O)C(N)Cc4ccccc4)cc3)c12 (centres unmarked) [Compound F-135, 2-Amino-N-[4-(3-methyl-1H-pyrrolo[2,3-b]pyridin-4-yl)phenyl]-3-phenyl-propanamide]",–,–,–,–,IC50 [3]: 392 nM
"Cc1cc2c(-c3ccc(NC(=O)[C@@H](N)[C@H](O)C(C)C)cc3C)ccnc2[nH]1 [Compound F-161, (2S,3R)-2-Amino-3-hydroxy-4-methyl-N-[3-methyl-4-(2-methyl-1H-pyrrolo[2,3-b]pyridin-4-yl)phenyl]pentanamide]",19,–,–,–,"Kd [2]: 4.3 nM; IC50 [2, 13]: 23 nM"
"Cc1cc2c(-c3ccc(NC(=O)[C@H](N)[C@@H](O)C(C)C)cc3C)ccnc2[nH]1 [Compound F-162, (2R,3S)-2-Amino-3-hydroxy-4-methyl-N-[3-methyl-4-(2-methyl-1H-pyrrolo[2,3-b]pyridin-4-yl)phenyl]pentanamide]",5,–,–,–,"Kd [2]: 1.9 nM; IC50 [2, 13]: 10 nM"
C[C@]1(O)CC[C@H]2[C@@H]3CCC4=CC(=O)CCC4=C3C=C[C@@]21C [Compound R1881],–,–,–,–,citron kinase expression [11]: significant increase; citron kinase expression [12]: significant increase
